Our source for the IC50 and Kd values is publication PMC3898987 (Bioorganic & Medicinal Chemistry, 2013).

Assay [1] addresses T1, 5-HT3AB receptor, 5-HT3B subunit W90C (Homo sapiens, UniProt O95264+P46098, W83C).
T1 sequence (P46098 24-478): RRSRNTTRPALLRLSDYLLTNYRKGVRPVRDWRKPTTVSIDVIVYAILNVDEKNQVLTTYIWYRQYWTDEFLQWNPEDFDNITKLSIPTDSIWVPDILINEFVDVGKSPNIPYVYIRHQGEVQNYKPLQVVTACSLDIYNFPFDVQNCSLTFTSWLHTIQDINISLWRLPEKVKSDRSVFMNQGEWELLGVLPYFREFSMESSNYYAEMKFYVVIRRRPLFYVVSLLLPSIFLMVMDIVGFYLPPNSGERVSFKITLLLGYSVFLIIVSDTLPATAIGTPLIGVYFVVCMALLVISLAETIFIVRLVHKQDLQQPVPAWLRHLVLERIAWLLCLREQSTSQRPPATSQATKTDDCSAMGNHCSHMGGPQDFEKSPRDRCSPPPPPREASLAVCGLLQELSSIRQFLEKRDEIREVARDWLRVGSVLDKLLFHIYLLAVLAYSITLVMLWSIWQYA
T1 sequence (O95264 22-441 W83C): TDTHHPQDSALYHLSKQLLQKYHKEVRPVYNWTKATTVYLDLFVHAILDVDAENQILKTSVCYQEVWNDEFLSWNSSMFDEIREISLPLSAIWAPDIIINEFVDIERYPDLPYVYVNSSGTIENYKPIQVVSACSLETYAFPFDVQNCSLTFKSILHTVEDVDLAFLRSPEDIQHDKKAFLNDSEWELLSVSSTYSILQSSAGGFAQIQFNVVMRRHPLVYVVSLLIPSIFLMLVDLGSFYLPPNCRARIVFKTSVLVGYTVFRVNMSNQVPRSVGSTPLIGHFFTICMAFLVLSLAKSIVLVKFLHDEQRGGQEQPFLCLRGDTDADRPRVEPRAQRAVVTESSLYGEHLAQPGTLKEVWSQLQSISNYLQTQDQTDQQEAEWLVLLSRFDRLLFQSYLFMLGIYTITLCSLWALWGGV
Kind of assay: cell-based.
Experimental: Human embryonic kidney (HEK) 293 cells were cultured on 90 mm tissue culture plates at 37 °C and 7% CO2 in a humidified atmosphere. They were grown in DMEM:F12 (Dulbecco’s Modified Eagle’s Medium/Nutrient Mix F12 (1:1)) with GlutaMAX I™ containing 10% fetal calf serum and passaged when confluent. […] For FlexStation assays, transfected cells were plated on 96-well plates and incubated 1–2 days before assay.
Fluorometric studies were undertaken using a FlexStation® (Molecular Devices, Sunnyvale, CA, USA) as previously described.[11]
Fluorescence was measured every 2 s for 200 s. […] Concentration–response and inhibition curves were obtained for each mutant, and the fluorescence values were normalized to the maximal response.

Assay [2] addresses T2, 5-HT3A receptor Y73A (Homo sapiens, UniProt P46098, Y68A).
T2 sequence (P46098 24-478 Y68A): T1 sequence (P46098 24-478) with Y45A
The assay can be described thus: radioligand saturation binding, transfected HEK293 membranes. Particulars: [3H]-palonosetron saturation, 5-HT3A Y73A, 4 °C, 24 h.
Experimental: (§1) Human embryonic kidney (HEK) 293 cells were cultured on 90 mm tissue culture plates at 37 °C and 7% CO2 in a humidified atmosphere. They were grown in DMEM:F12 (Dulbecco’s Modified Eagle’s Medium/Nutrient Mix F12 (1:1)) with GlutaMAX I™ containing 10% fetal calf serum and passaged when confluent. For radioligand binding studies, cells in 90 mm dishes were transfected at 60–70% confluency using polyethyleneimine and incubated for 3–4 days before use. For FlexStation assays, transfected cells were plated on 96-well plates and incubated 1–2 days before assay. […]
(§2) Eight-point binding assays were performed to produce saturation binding curves. […] Radioactive counts were measured using a Beckman LS6000SC liquid scintillation counter (Fullerton, California, USA).
(§3) Data were analyzed by iterative curve fitting using GraphPad Prism v5 (San Diego, CA) according to the following equation: B=Bmax[L]^n/kdn+[L]^n where B is the amount of bound radioligand, Bmax is the maximum specific binding at equilibrium, [L] is the concentration of radioligand, Kd is the equilibrium dissociation constant of the radioligand, and n is the Hill coefficient.

Assay [3] has as its target T3, 5-HT3A receptor Y73F (Homo sapiens, UniProt P46098, Y68F).
T3 sequence (P46098 24-478 Y68F): T1 sequence (P46098 24-478) with Y45F
Described as above. Particulars: [3H]-palonosetron saturation, 5-HT3A Y73F, 4 °C, 24 h.
Experimental: as §1, §2, §3

In assay [4] the target is T4, 5-HT3A receptor W183C (Homo sapiens, UniProt P46098, W178C).
T4 sequence (P46098 24-478 W178C): T1 sequence (P46098 24-478) with W155C
The assay is described as above. As to conditions: [3H]-palonosetron saturation, 5-HT3A W183C, 4 °C, 24 h, NB = no binding.
Experimental: as §1, §2, §3

Each structure is given as a SMILES string. Numbering of substitutions follows the chain as printed.

By IC50 is commonly meant the concentration that gives 50% inhibition. Higher therefore signals a need for much substance. As a reminder, the Kd is the constant that tells how readily two partners part at equilibrium. Take `O=C1c2cccc3c2[C@H](CCC3)CN1[C@@H]1CN2CCC1CC2` [Palonosetron]: in assay [1], half-maximal inhibition (IC50) was put at 0.37 ± 0.1 nM. Moreover, the Kd was 0.87 ± 0.04 nM in assay [2]; 0.25 ± 0.04 nM in assay [3]; greater than 2 nM in assay [4]; “no saturable, specific binding” in assay [4] (listed as [^3H]palonosetron).
